According to article PMC7821181, “MS Binding Assays for Glycine Transporter 2 (GlyT2) Employing Org25543 as Reporter Ligand” (Chemmedchem, 2020):
“And” between values parts separate entries of the source, which are not always exact repeats. Identical values can stand only once. “Also recorded” adds a separate entry of the source. Like-named read-outs stand apart in the source and are kept apart here.

Key:
hGlyT2 = biological target: T1, hGlyT2 (Homo sapiens, UniProt Q9Y345); test: GlyT2 MS Binding Assays: competition experiments with Org25543 as reporter ligand; details: for affinity / inhibition of Org25543 binding, in words: up to highest concentration (sarcosine, L-serine, DL-leucine mM; Org24598 300 μM; LY2365109 10 μM; ALX5407 600 μM); for completeness of displacement of Org25543 from GlyT2, in words: up to the highest concentration investigated (glycine 1 M)
T1 construct: host or cells: HEK293 cells stably expressing hGlyT2; crude membrane fractions
T1 sequence (Q9Y345 1-797): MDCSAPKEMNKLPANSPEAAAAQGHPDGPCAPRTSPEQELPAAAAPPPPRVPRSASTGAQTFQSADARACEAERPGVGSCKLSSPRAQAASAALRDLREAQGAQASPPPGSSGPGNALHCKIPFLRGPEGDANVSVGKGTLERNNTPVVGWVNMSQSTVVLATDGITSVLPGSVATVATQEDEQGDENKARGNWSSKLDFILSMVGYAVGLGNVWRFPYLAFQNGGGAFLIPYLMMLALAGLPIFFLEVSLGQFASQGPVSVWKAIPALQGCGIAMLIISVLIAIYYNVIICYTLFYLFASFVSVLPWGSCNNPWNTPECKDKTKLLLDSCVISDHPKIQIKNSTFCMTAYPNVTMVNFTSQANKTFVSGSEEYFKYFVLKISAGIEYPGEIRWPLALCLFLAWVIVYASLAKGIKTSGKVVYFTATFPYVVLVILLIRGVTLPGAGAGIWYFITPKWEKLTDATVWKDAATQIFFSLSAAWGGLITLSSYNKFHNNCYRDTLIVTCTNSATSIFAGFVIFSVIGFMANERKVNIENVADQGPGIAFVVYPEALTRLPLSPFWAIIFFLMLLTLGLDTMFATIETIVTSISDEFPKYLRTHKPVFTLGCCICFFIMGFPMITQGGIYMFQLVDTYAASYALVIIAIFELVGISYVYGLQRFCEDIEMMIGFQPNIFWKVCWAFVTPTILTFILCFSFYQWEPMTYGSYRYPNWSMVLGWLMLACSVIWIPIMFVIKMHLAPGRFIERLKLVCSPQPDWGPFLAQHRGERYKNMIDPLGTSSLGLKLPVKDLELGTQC
Protocol: For the development of the desired competitive MS Binding Assay, the general concept of this kind of binding experiments was followed, in which the affinity of a test compound is delineated from its potency to compete out a reporter ligand, in our case Org25543, from its target binding site. Accordingly, the target protein was incubated with a defined concentration of the reporter ligand and increasing concentration of the individual test compound. In detail, the competitors were studied at seven different concentration levels, which covered about three concentration log units, whereas the concentration of Org25543 was fixed to 10 nM. Thereafter, via the developed LC‐ESI‐MS/MS method the amount of bound marker (total binding) was determined for the samples obtained from the individual incubation mixtures by the common workup for MS Binding Assays. Nonspecific binding was again determined in a set of analogous experiments in which GlyT2 membrane fractions were replaced by material subjected to a heat‐shock before. The resulting amount of Org25543 binding was defined as 0 % level of specific reporter ligand binding. […] The thus determined IC50 values were finally used to calculate the corresponding K i values by means of the Cheng‐Prusoff equation.
For preparation of GlyT2 membrane preparations HEK293 cells, stably expressing the hGlyT2 with a confluence ≥90 %, were used (kindly provided by AbbVie (Wiesbaden, Germany)). As cell culture medium DMEM containing 10 % fetal bovine serum (m/v), 100 U mL^−1 penicillin, 100 μg mL^−1 streptomycin and […] hygromycin B was used and the cells were cultivated in dishes (143 cm^2) at 37 °C and 8 % CO2. The cells were detached from the dish by aspirating the medium, adding 12 mL cell culture medium without hygromycin B and pipetting the medium several times until the cell lawn was completely detached. Subsequently, the cells were washed twice with PBS (5 min, 1600 rpm, Biofuge Stratos, rotor: #3047, Heraeus, Hanau, Germany) and afterwards homogenized in incubation buffer (10 mM HEPES, 120 mM NaCl, 2 mM KCl, 1 mM MgCl2, 1 mM CaCl2, pH 7.5) using a Polytron PTA 10 S (Kinematica Polytron, Littau‐Luzern, Switzerland). After homogenization aliquots of about 1 mg protein were frozen and stored at −80 °C. To determine the amount of protein in the membrane preparation (after treatment with 100 mM NaOH for 1 h) the protein determination according to Bradford ^[63] was applied, using bovine serum albumin as standard for calibration. At the day of the assay the membrane preparation was rapidly thawed, diluted in 20 mL incubation buffer and centrifuged at 4 °C for 20 min at 20 500 rpm (Sorvall Evolution RC, rotor: SS34, Thermo. Electron, Hanau, Germany). Finally, the resulting pellet was resuspended in 6 mL incubation buffer yielding a protein concentration of ∼0.1–0.2 mg mL^−1.
In polypropylene 96‐well plates (1.2 mL well volume, Sarstedt) membrane preparations (∼5–10 μg protein) were incubated in the presence of the reporter ligand and, if required, test compounds in incubation buffer (10 mM HEPES, 120 mM NaCl, 2 mM KCl, 1 mM MgCl2, 1 mM CaCl2, pH 7.5) in a total volume of 250 μL at 37 °C in a Julabo SW‐20 C water bath (Julabo GmbH, Seelbach, Germany) for 1 h (every sample was prepared in triplicates). After the incubation 210 μL aliquots of the binding samples were transferred by means of a 12‐channel pipette onto 96‐well glass fiber filter plates (AcroPrep Advance, glass fiber, 1.0 μm, 350 μL; Pall Corporation, Port Washington, NY, USA) where the incubation was terminated by vacuum filtration (the samples were transferred and the incubation was terminated row after row; Multi Well Plate Vacuum Manifold, Pall, Dreieich, Germany).

GlyT2 [1] = details: cited from earlier work; for pIC50 (literature; calcd): calcd from literature IC50; for IC50: read-out: Biological activity, IC50 (literature)
GlyT2 [2] = details: ref 40; read-out: IC50 in glycine uptake studies; cited from earlier work
[3] = read-out: Affinity, pKi (GlyT2 MS Binding Assays) (converted)
[4] = compound 600 μM, Org25543 10 nM

Structure (SMILES): N[C@@H](CO)C(=O)O [L‐serine]
- remaining Org25543 binding (% of specific binding) at the highest compound concentration (hGlyT2; compound 180 mM, Org25543 10 nM): 97±4%
- Ki (hGlyT2; [3]): > 77600 µM
- affinity / inhibition of Org25543 binding, in words (hGlyT2): no inhibition of Org25543 binding to more than 50%
- Glycine uptake in presence of 1 mM competitor (% of control) (GlyT2 [1]): 89±7 %^[47],[c]

Structure (SMILES): CC(C)CC(N)C(=O)O (racemic) [DL‐leucine]
- remaining Org25543 binding (% of specific binding) at the highest compound concentration (hGlyT2; compound 10 mM, Org25543 10 nM): 99±3%
- Ki (hGlyT2; [3]): > 4270 µM
- affinity / inhibition of Org25543 binding, in words (hGlyT2): no inhibition of Org25543 binding to more than 50%

Structure (SMILES): O=C(O)C1CCCN1 (racemic) [DL‐proline]
- Ki (hGlyT2; [3]): 31600 µM
- completeness of displacement of Org25543 from GlyT2, in words (hGlyT2): not able to displace Org25543 completely
- Glycine uptake in presence of 1 mM competitor (% of control) (GlyT2 [1]): 95±5 %^[47],[c]

Structure (SMILES): CCCCCCCC/C=C\CCCCCCCC(=O)NCC(=O)O [N‐oleoylglycine, N‐(1‐oxo‐9‐octadecenyl)‐(Z)‐glycine]
- Ki (hGlyT2; [3]): 2.34 µM
- completeness of displacement of Org25543 from GlyT2, in words (hGlyT2): not able to displace Org25543 completely
- pIC50 (literature; calcd) (GlyT2 [1]; ref 19): 6.30
- IC50 (GlyT2 [1]; ref 19): 0.5 µM

Structure (SMILES): CC(C)c1nnc(-c2ccc(-c3ccccc3)nc2)n1-c1cccc2nonc12 [ASP2535, 4‐[3‐(1‐methylethyl)‐5‐(6‐phenyl‐3‐pyridinyl)‐4H‐1,2,4‐triazol‐4‐yl]‐2,1,3‐benzoxadiazole]
- Ki (hGlyT2; [3]): 1.02 µM
- pIC50 (literature; calcd) (GlyT2 [1]; ref 56): 5.34
- IC50 (GlyT2 [1]; ref 56): 4.6 ± 0.29 µM

Structure (SMILES): CNCC(=O)O [sarcosine]
- remaining Org25543 binding (% of specific binding) at the highest compound concentration (hGlyT2; compound 2.2 mM, Org25543 10 nM): 98±6%
- Ki (hGlyT2; [3]): > 933 µM
- affinity / inhibition of Org25543 binding, in words (hGlyT2): no inhibition of Org25543 binding to more than 50%
- pIC50 (literature; calcd) (GlyT2 [1]; ref 22): <3
- IC50 (GlyT2 [1]; ref 22): > 1000 µM

Structure (SMILES): O=C(O)CCCCSc1ncnc2[nH]c(O)nc12 [ZINC6865169, 5‐((8‐hydroxy‐9H‐purin‐6‐yl)thio)pentanoic acid]
- IC50 (hGlyT2): > 600 µM
- remaining Org25543 binding (% of specific binding) at the highest compound concentration (hGlyT2; [4]): 77% and 77±6%
- Ki (hGlyT2; [3]): > 257 µM
- pIC50 (literature; calcd) (GlyT2 [1]; ref 40): 6.29
- IC50 (GlyT2 [1]; ref 40): 0.518 ± 0.066 µM
- IC50 (GlyT2 [2]): 0.518 µM

Structure (SMILES): CN(CCC(Oc1ccc(C(=O)c2nccs2)cc1)c1ccc(Cl)cc1)CC(=O)O (stereo not shown) [CP‐802,079, N‐[3‐(4‐chlorophenyl)‐3‐[4‐(2‐thiazolylcarbonyl)phenoxy]propyl]‐N‐methyl‐glycine]
- Ki (hGlyT2; [3]): 22.9 µM
- pIC50 (literature; calcd) (GlyT2 [1]; ref 55): <5
- IC50 (GlyT2 [1]; ref 55): > 10 µM

Structure (SMILES): CN(CC[C@@H](Oc1ccc(C(F)(F)F)cc1)c1ccccc1)CC(=O)O [Org24598, N‐methyl‐N‐[(3R)‐3‐phenyl‐3‐[4‐(trifluoromethyl)phenoxy]propyl]glycine]
- remaining Org25543 binding (% of specific binding) at the highest compound concentration (hGlyT2; compound 300 μM, Org25543 10 nM): 101±5%
- Ki (hGlyT2; [3]): > 129 µM
- affinity / inhibition of Org25543 binding, in words (hGlyT2): hardly any affinity
- pIC50 (literature; calcd) (GlyT2 [1]; ref 53): <4
- IC50 (GlyT2 [1]; ref 53): > 100 µM

Structure (SMILES): CN(CCOc1ccc(-c2ccc3c(c2)OCO3)cc1C(C)(C)C)CC(=O)O [LY2365109, N‐[2‐[4‐(1,3‐benzodioxol‐5‐yl)‐2‐(1,1‐dimethylethyl)‐phenoxy]ethyl]‐N‐methylglycine]
- remaining Org25543 binding (% of specific binding) at the highest compound concentration (hGlyT2; compound 10 μM, Org25543 10 nM): 94±10%
- Ki (hGlyT2; [3]): > 4.27 µM
- affinity / inhibition of Org25543 binding, in words (hGlyT2): hardly any affinity
- pIC50 (literature; calcd) (GlyT2 [1]; ref 57): <4.52
- IC50 (GlyT2 [1]; ref 57): > 30 µM

Structure (SMILES): CN(CC[C@@H](Oc1ccc(-c2ccccc2)cc1)c1ccc(F)cc1)CC(=O)O [ALX5407, N‐[(3R)‐3‐([1,1′‐biphenyl]‐4‐yloxy)‐3‐(4‐fluorophenyl)propyl]‐N‐methylglycine]
- IC50 (hGlyT2): > 600 µM
- remaining Org25543 binding (% of specific binding) at the highest compound concentration (hGlyT2; [4]): 90±5%
- Ki (hGlyT2; [3]): > 257 µM
- affinity / inhibition of Org25543 binding, in words (hGlyT2): hardly a reduction of Org25543 binding
- pIC50 (literature; calcd) (GlyT2 [1]; ref 40): 5.74
- pIC50 (literature; calcd) (GlyT2 [1]; ref 54): < 4
- IC50 (GlyT2 [1]; ref 40): 1.8 µM
- IC50 (GlyT2 [1]; ref 54): > 100 µM

Structure (SMILES): COC(=O)CN [glycine methyl ester]
- Ki (hGlyT2; [3]): 77600 µM
- Glycine uptake in presence of 1 mM competitor (% of control) (GlyT2 [1]): 84±5 %^[47],[c]

Structure (SMILES): CN(C)CCCN1c2ccccc2Sc2ccc(Cl)cc21 [chlorpromazine]
- Ki (hGlyT2; [3]): 28.2 µM
- pIC50 (literature; calcd) (GlyT2 [1]; ref 58): 4.68
- IC50 (GlyT2 [1]; ref 58): 21 ± 4 µM

Structure (SMILES): NCC(=O)O [glycine]
- Affinity, pKi (GlyT2 MS Binding Assays) (hGlyT2; Org25543 10 nM, 37 °C, 1 h, mean±SEM, n=3–5, bounds in brackets where less than 50 % inhibition): 1.98±0.08
- Ki (hGlyT2; approximate value, read-out: Ki at GlyT2 in competition experiments): ~10000 µM
- completeness of displacement of Org25543 from GlyT2, in words (hGlyT2): not able to displace Org25543 completely; also recorded: cannot completely displace Org25543
- EC50 (GlyT2 [1]; K m and EC50 values, read-out: Biological activity (literature): K m and EC50 values): 6 to 1800 µM
